Consider ten molecules from patent US11661419B2, “Benzimidazole derivative compounds and uses thereof” (Pfizer Inc., priority 2019, dated 2023).

Structures are written as SMILES.

The test concerns IL-2 in activated CD4+ human T-cells. Kind of test: IL-2 inhibition in supernatants from activated CD4+ human T-cells (cisbio HTRF). It counts as cell-based. The following applies: T-cell; geometric mean of count n; CD3/CD28-expanded human CD4+ T cells stimulated with ImmunoCult, 20 to 24 hrs. How it is done: IL-2-Inhibition Activity, IC50 (uM)
IL-2 inhibition activity in supernatants from activated CD4+ human T-cells was determined by measuring the effect of a test compound on the activity using the cisbio HTRF™ technology.
Human CD4+ T cells were activated with CD3/CD28 for 3 days and expanded for an additional 4-6 days (7 to 9 days total). On day 0, frozen CD4+ T cells were thawed, treated with CD3/CD28 Dynabeads, and incubated at 37° C./5% CO2. On day 3, the beads were removed, and the cells were diluted to 5×10^5 cells/cm^2, placed in G-Rex10 flask, and incubated at 37° C./5% CO2. On day 7 to day 9 the cells were removed from the G-Rex flasks, counted and diluted back to 1×10^6 cells/ml in standard tissue culture flask.
The expanded CD4+ T-cells were centrifuged at 300×g for 10 minutes and resuspended to 0.5 million cells per ml (30,000 cells/well). 60 μl of CD4+ T cells were added per well to a 384 well plate containing 0.1 μL of varying concentrations of test compound in DMSO. The plates were incubated for 15 min at 37° C./5% CO2. 20 μl of diluted ImmunoCult™ ([…] Technologies, 1:12.5 in T cell assay media) were added to all wells of the plate (1:50 final assay concentration). The plates were incubated for an additional 20 to 24 hrs at 37° C./5% CO2. The plates were centrifuged at 300×g for 10 minutes. 16 μL of supernatant was removed and combined with 4 μl of IL-2 HTRF Abs. (cisbio kit). Plates were incubated for 3 hours at RT and read with an EnVision plate reader at 665 nm and 615 nm wavelengths.
In general terms: In TR-FRET formats the signal depends on donor and acceptor labels being close together.
As a reminder, the IC50 is the concentration at which inhibition is half-maximal. With `Cc1cc2[nH]c(-c3n[nH]c4c3C[C@@H]3C[C@]3(C)C4)nc2cc1N(C)C(=O)C(C)C1CCOCC1` (stereo partly drawn) [Example 5, N-methyl-N-(6-methyl-2-((4aS,5aR)-5a-methyl-1,4,4a,5,5a,6-hexahydrocyclopropa[f]indazol-3-yl)-1H-benzo[d]imidazol-5-yl)-2-(tetrahydro-2H-pyran-4-yl)propanamide], the IC50 came out at 27 nM.
In turn, `C[C@@H](C(=O)N(C)c1ccc2[nH]c(-c3n[nH]c4c3C[C@@H]3C[C@]3(C)C4)nc2c1)C1CCOCC1` [Example 7, (R)—N-methyl-N-(2-((4aS,5aR)-5a-methyl-1,4,4a,5,5a,6-hexahydrocyclopropa[f]indazol-3-yl)-1H-benzo[d]imidazol-5-yl)-2-(tetrahydro-2H-pyran-4-yl)propanamide] displayed an IC50 of 13 nM.
The molecule `CC(C(=O)N(C)c1ccc2[nH]c(-c3n[nH]c4c3C[C@@H]3C[C@]3(C)C4)nc2c1)C1CCOCC1` (stereo partly drawn) [Example 8, N-methyl-N-(2-((4aS,5aR)-5a-methyl-1,4,4a,5,5a,6-hexahydrocyclopropa[f]indazol-3-yl)-1H-benzo[d]imidazol-5-yl)-2-(tetrahydro-2H-pyran-4-yl)propanamide] yielded an IC50 of 26 nM.
The value for `C[C@H](C(=O)N(C)c1ccc2[nH]c(-c3n[nH]c4c3C[C@@H]3C[C@]3(C)C4)nc2c1)C1CCOCC1` [Example 9, (S)—N-methyl-N-(2-((4aS,5aR)-5a-methyl-1,4,4a,5,5a,6-hexahydrocyclopropa[f]indazol-3-yl)-1H-benzo[d]imidazol-5-yl)-2-(tetrahydro-2H-pyran-4-yl)propanamide] was 99 nM; that for `CN(C(=O)C(F)(F)C1CCOCC1)c1ccc2[nH]c(-c3n[nH]c4c3C[C@@H]3C[C@]3(C)C4)nc2c1` [Example 11, 2,2-difluoro-N-methyl-N-(2-((4aS,5aR)-5a-methyl-1,4,4a,5,5a,6-hexahydrocyclopropa[f]indazol-3-yl)-1H-benzo[d]imidazol-5-yl)-2-(tetrahydro-2H-pyran-4-yl)acetamide] was 34 nM.
`C[C@@H](C(=O)N(C)c1cc2nc(-c3n[nH]c4c3C[C@@H]3C[C@]3(C)C4)[nH]c2cc1F)N1CCOCC1` [Example 17, (S)—N-(6-fluoro-2-((4aS,5aR)-5a-methyl-1,4,4a,5,5a,6-hexahydrocyclopropa[f]indazol-3-yl)-1H-benzo[d]imidazol-5-yl)-N-methyl-2-morpholinopropanamide] yielded an IC50 of 45 nM.
In turn, `CCc1cc2[nH]c(-c3n[nH]c4c3C[C@@H]3C[C@]3(C)C4)nc2cc1N(C)C(=O)[C@H](C)N1CCOCC1` [Example 18, (S)—N-(6-ethyl-2-((4aS,5aR)-5a-methyl-1,4,4a,5,5a,6-hexahydrocyclopropa[f]indazol-3-yl)-1H-benzo[d]imidazol-5-yl)-N-methyl-2-morpholinopropanamide] had an IC50 of 91 nM. This IC50 is about 2-fold higher than that of the molecule before.
In the case of `C[C@@H](C(=O)N(C)c1cc(F)c2[nH]c(-c3n[nH]c4c3C[C@@H]3C[C@]3(C)C4)nc2c1)N1CCOCC1=O` [Example 22, (S)—N-(7-fluoro-2-((4aS,5aR)-5a-methyl-1,4,4a,5,5a,6-hexahydrocyclopropa[f]indazol-3-yl)-1H-benzo[d]imidazol-5-yl)-N-methyl-2-(3-oxomorpholino)propanamide], the IC50 was 340 nM. Compared with the last molecule, the IC50 is about 3.7-fold higher.
The value for `C[C@H](C(=O)N(C)c1cc(F)c2[nH]c(-c3n[nH]c4c3C[C@@H]3C[C@]3(C)C4)nc2c1)N1CCOCC1=O` [Example 23, (R)—N-(7-fluoro-2-((4aS,5aR)-5a-methyl-1,4,4a,5,5a,6-hexahydrocyclopropa[f]indazol-3-yl)-1H-benzo[d]imidazol-5-yl)-N-methyl-2-(3-oxomorpholino)propanamide] was 304 nM.
Next, `Cc1cc2[nH]c(-c3n[nH]c4c3C[C@@H]3C[C@]3(C)C4)nc2cc1N(C)C(=O)CN1CCOC(CO)C1` (stereo partly drawn) [Example 27, 2-(2-(Hydroxymethyl)morpholino)-N-methyl-N-(6-methyl-2-((4aS,5aR)-5a-methyl-1,4,4a,5,5a,6-hexahydrocyclopropa[f]indazol-3-yl)-1H-benzo[d]imidazol-5-yl)acetamide]: 289 nM.
